The term pIC50 denotes the IC50 on a negative log10 scale, so that one unit is a factor of ten.

pIC50: −log10 of the molar value. Where “and” joins values, the source holds several entries; their conditions need not be identical. Identical values can stand only once.

This passage reports IC50 and inhibition results from patent publication US5075440A, “Novel pyrido[2,3-f](1,4)thiazepines and pyrido[3,2-b](1,5)benzothiazepines” (Ortho Pharmaceutical Corporation, priority 1990, dated 1991).

In experiment [1] the target is T1, Calcium Channel (3H-nitrendipine binding, heart membranes) (Oryctolagus cuniculus, UniProt P15381).
T1 construct: the heart is immediately removed, cleaned and chopped into small pieces; The tissue is homogenized; from tissue; host or cells: heart membranes of female New Zealand white rabbits (42,000×g pellet)
Description: Inhibition of 3H-nitrendipine binding (P#166 Nit. Binding). Particulars: for pIC50: rabbit heart membranes, 3H-nitrendipine 0.05-0.50 nM. Also noted: species or system rabbit. As for the experimental part: The assay for inhibition of nitrendipine binding is performed using the following procedure:
Female, New Zealand white rabbits (1-2 kg) are sacrificed by cervical dislocation, and the heart is immediately removed, cleaned and chopped into small pieces. The tissue is homogenized in 5×volume of 0.05M Hepes buffer, pH 7.4. The homogenate is centrifuged at 4000×g for 10 minutes, and the supernatant is recentrifuged at 42,000×g for 90 minutes. The resulting membrane pellet is resuspended (0.7 ml/g weight) in 0.05M Hepes, pH 7.4 and stored at […] until used. Each tube of the binding assay contains ^3 H-nitrendipine (0.05-0.50 nM), buffer, membranes (0.10 ml), and test compound in a total volume of 1.0 ml. After 90 minutes at 4° C., the bound nitrendipine is separated from the unbound by filtration on Whatman GF/C filters. After rinsing, the filters are dried and counted in a liquid scintillation counter.
Non-specific binding of ^3 H-nitrendipine (that amount bound in the presence of excess unlabelled nitrendipine) is subtracted from the total bound to obtain specifically bound radiolabeled nitrendipine. The amount of specifically bound nitrendipine in the presence of a test compound is compared to that amount bound in the absence of a compound. A percent displacement (or inhibition) can then be obtained.

The test system of the next experiment is trachealis muscle tissue. Briefly: Inhibition of calcium dependent smooth muscle contraction, trachea (P#176 Trach). Particulars: Canis lupus familiaris, 50 mM KCl contraction, read-out: P#176 Trach % INHB/μM. Also noted: species or system dog. The method, then:
(§1) The test for inhibition of calcium dependent smooth muscle contraction is determined according to the following procedure:
(§2) The trachea and the aorta from dogs sacrificed by excess KCl injection are stored overnight at 4° C. in oxygenated Krebs-Henseleit buffer. Tracheal rings, one cartilage segment wide (5-10 mm), are cut starting from the bronchial end. Rings of aorta tissue of the same width are also prepared. After cutting the cartilage, the trachealis muscle tissue and the aorta tissue are suspended in oxygenated Krebs-Henseleit buffer at 37° C. in a 25 ml tissue bath. After a 60-minute equilibration period, the tissues are challenged with 10 μM carbachol. After 5 minutes, the tissues are rinsed and allowed to rest 50 minutes. The tissues are then challenged with 50 mM KCl and, after 30 minutes, the contractions are quantitated. The tissues are then rinsed and reequilibrated for 50 minutes. Test compounds are then added for 10 minutes, and the tissue is rechallenged with 50 mM KCl. After 30 minutes, the contraction is recorded and used to determine the % inhibition of control.
(§3) The percent inhibition of smooth muscle contraction is calculated from response data before and after drug treatment. [formula]

The test system of a further experiment is aorta tissue. Briefly: Inhibition of calcium dependent smooth muscle contraction, aorta (P#176 Aorta). Also noted: species or system dog. Particulars: Canis lupus familiaris, 50 mM KCl contraction, read-out: P#176 Aorta % INHB/μM. As for the experimental part: as §1, §2, §3

T1 sequence (P15381 whole entry, other chains not shown): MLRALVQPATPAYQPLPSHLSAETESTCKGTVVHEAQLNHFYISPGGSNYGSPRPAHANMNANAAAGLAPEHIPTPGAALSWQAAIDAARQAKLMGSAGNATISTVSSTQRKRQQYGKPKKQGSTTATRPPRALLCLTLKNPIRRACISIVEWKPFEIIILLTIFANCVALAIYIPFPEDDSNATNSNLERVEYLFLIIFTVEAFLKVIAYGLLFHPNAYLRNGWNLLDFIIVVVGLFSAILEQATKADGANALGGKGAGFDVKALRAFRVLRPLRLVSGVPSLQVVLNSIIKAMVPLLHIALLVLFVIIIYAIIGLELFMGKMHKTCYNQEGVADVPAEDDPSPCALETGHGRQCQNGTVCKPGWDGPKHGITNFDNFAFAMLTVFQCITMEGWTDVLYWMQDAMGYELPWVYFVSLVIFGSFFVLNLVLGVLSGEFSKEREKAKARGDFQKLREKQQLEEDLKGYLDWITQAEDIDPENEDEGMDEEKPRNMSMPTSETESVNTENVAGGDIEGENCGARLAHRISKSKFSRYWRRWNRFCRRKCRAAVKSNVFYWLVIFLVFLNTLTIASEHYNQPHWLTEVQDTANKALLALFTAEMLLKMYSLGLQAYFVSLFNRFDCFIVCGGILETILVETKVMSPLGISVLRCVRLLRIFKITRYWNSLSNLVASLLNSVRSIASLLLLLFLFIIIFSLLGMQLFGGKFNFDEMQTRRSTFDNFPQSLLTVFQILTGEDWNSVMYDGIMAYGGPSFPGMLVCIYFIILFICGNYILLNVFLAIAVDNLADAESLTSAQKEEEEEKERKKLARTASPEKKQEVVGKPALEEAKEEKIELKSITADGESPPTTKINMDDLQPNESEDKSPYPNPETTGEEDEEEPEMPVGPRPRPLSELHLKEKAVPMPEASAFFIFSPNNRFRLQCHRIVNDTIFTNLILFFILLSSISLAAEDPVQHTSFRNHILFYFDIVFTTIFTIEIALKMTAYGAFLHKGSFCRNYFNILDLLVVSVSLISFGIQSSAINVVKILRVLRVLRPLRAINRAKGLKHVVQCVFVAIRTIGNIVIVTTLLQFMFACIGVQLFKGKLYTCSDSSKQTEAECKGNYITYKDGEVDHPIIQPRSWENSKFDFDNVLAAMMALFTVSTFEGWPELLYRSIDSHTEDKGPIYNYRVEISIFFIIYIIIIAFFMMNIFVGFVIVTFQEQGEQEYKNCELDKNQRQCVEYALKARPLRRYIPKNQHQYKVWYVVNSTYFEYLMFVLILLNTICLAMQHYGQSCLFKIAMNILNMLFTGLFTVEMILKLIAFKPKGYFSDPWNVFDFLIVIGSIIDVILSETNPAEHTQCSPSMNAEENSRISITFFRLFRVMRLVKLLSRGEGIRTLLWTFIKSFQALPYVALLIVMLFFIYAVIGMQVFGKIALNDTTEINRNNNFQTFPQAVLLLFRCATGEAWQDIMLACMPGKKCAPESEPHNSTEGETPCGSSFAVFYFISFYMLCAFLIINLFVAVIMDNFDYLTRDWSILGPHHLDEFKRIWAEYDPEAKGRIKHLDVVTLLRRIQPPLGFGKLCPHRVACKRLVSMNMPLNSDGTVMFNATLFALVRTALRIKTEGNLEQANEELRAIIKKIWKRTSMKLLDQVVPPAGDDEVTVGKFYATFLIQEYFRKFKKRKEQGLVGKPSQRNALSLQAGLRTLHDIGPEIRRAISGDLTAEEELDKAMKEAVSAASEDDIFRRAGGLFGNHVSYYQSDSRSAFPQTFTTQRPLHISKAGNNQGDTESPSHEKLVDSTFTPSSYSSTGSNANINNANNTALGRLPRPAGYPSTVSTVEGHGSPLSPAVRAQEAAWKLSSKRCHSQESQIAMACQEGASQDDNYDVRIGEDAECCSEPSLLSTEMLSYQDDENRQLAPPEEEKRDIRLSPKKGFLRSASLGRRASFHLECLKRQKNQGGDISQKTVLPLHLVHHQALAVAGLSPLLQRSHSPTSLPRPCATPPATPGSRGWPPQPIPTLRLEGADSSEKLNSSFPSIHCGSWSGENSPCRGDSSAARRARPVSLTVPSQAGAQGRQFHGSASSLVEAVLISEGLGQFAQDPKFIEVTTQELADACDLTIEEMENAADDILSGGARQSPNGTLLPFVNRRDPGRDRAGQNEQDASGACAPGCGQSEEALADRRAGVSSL
T1 sequence (P13806 27-960 partner limits assumed, other chains not shown): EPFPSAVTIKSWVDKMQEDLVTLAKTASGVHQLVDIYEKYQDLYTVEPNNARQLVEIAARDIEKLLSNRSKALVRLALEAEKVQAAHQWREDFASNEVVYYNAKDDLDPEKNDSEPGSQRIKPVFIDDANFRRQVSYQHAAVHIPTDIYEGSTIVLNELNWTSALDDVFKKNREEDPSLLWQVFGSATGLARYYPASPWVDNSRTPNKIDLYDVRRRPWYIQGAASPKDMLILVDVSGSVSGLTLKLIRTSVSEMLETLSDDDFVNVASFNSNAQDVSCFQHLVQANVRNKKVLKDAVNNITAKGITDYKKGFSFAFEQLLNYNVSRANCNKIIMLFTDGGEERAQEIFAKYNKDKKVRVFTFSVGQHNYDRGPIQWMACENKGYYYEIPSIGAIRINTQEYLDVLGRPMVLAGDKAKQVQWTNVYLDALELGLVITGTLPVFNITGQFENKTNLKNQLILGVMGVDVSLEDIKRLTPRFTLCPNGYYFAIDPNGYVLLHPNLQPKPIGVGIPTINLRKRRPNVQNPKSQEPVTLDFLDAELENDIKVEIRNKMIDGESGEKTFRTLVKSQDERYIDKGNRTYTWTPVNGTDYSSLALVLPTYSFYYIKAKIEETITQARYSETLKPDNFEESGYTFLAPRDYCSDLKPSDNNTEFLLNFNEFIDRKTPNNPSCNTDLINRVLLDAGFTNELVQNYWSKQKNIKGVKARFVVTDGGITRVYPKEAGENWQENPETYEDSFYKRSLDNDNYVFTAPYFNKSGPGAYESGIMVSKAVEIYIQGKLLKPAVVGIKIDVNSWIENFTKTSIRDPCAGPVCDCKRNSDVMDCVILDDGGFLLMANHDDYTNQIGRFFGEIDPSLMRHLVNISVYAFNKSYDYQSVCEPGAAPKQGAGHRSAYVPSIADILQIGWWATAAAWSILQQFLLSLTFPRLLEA
T1 sequence (P13806 961-1106 partner limits assumed, other chains not shown): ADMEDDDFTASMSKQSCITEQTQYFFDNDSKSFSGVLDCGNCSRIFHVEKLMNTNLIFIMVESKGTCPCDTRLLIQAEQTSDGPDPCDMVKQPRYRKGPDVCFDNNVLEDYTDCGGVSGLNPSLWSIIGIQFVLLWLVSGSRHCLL

As for `CCOC(=O)C1=C(C)NC2=C(C1c1c(F)c(F)c(F)c(F)c1F)S(=O)(=O)CCN(C)C2` (stereo not shown) [pentafluoro / Me / ethyl, Ethyl 4,7-dimethyl-1,1-dioxo-2,3,4,5,6,9-hexahydro-9-(2,3,4,5,6-pentafluorophenyl)-pyrido[2,3-f][1,4]-thiazepine-8-carboxylate], the pIC50 in experiment [1] is 7.28. Besides, in the experiment on trachealis muscle tissue, the inhibition at 0.01 µM was 35%, the inhibition at 0.1 µM was 73% and the inhibition at 1 µM turned out to be 95%. In the experiment with aorta tissue, the inhibition at 0.01 µM is 50% and the inhibition at 1 µM came out at 97%.
For the compound `CCOC(=O)C1=C(C)NC2=C(C1c1cccc(Cl)c1Cl)S(=O)(=O)CCNC2` (stereo not shown) [2,3-dichloro / H / ethyl, Ethyl 9-(2,3-dichlorophenyl)-1,1-dioxo-2,3,4,5,6,9-hexahydro-7-methyl-pyrido[2,3-f][1,4]thiazepine-8-carboxylate], the pIC50 in experiment [1] was 7.00 and 6.98. In the experiment with trachealis muscle tissue, the inhibition at 0.1 µM worked out at 43% and the inhibition at 1 µM was determined as 73%. For the same compound, in the experiment on aorta tissue, the inhibition at 0.01 µM was determined as 21%, the inhibition at 0.1 µM amounted to 85% and the inhibition at 1 µM amounted to 96%.
Consider `CCOC(=O)C1=C(C)NC2=C(C1c1cccc([N+](=O)[O-])c1)S(=O)(=O)CCNC2` (stereo not shown) [3-nitro / H / ethyl], for which the pIC50 in experiment [1] was 6.62. Also, in the experiment on trachealis muscle tissue, the inhibition at 0.03 µM is 58% and the inhibition at 2 µM came out at 93%. In the experiment with aorta tissue, the inhibition at 0.1 µM was determined as 88% and the inhibition at 1 µM worked out at 100%.
With `CCOC(=O)C1=C(C)NC2=C(C1c1cccc3nonc13)S(=O)(=O)CCNC2` (stereo not shown) [2,3-(2,1,3 oxadiazolyl) / H / ethyl], in experiment [1], the pIC50 is 6.18. Besides, in the experiment with trachealis muscle tissue, the inhibition at 0.3 µM was 22% and the inhibition at 2 µM came to 68%. For the same compound, in the experiment on aorta tissue, the inhibition at 0.1 µM turned out to be 22% and the inhibition at 1 µM came to 83%.
On to `CCOC(=O)C1=C(C)NC2=C(C1c1c(F)cccc1Cl)S(=O)(=O)CCNC2` (stereo not shown) [2-Cl, 6-F / H / ethyl], for which the pIC50 in experiment [1] was 6.06. In the experiment with trachealis muscle tissue, the inhibition at 0.3 µM amounted to 56% and the inhibition at 2 µM stood at 88%. Further, in the experiment on aorta tissue, the inhibition at 0.01 µM came out at 4.8% and the inhibition at 1 µM was found to be 86%.
With `CCCN1CCS(=O)(=O)C2=C(C1)NC(C)=C(C(=O)OCC)C2c1cccc(Cl)c1Cl` (stereo not shown) [2,3-dichloro / Pr / ethyl], in experiment [1], the pIC50 is 6.84. Further, in the experiment with trachealis muscle tissue, the inhibition at 0.03 µM was determined as 30%, the inhibition at 0.1 µM was 44%, the inhibition at 0.3 µM was 53% and the inhibition at 2 µM is 68%. In the experiment on aorta tissue, the inhibition at 0.01 µM was 53%, the inhibition at 0.1 µM turned out to be 88% and the inhibition at 1 µM was 100%.
With `CCOC(=O)C1=C(C)NC2=C(C1c1cccc(Cl)c1Cl)S(=O)(=O)CCN(CC)C2` (stereo not shown) [2,3-dichloro / Et / ethyl, Ethyl 9-(2,3-dichlorophenyl)-1,1-dioxo-4-ethyl-2,3,4,5,6,9-hexahydro-7-methyl-pyrido[2,3-f][1,4]-thiazepine-8-carboxylate], the negative logarithm of the IC50 (pIC50) in experiment [1] was 7.22. Besides, in the experiment on trachealis muscle tissue, the inhibition at 0.01 µM was found to be 33%, the inhibition at 0.3 µM was 70% and the inhibition at 1 µM is 90%. Further, in the experiment with aorta tissue, the inhibition at 0.01 µM was 19%, the inhibition at 0.1 µM amounted to 76% and the inhibition at 1 µM is 96%.
On to `CCOC(=O)C1=C(C)NC2=C(C1c1cccc(Cl)c1Cl)S(=O)(=O)CCN(C(=O)OC(C)(C)C)C2` (stereo not shown) [2,3-dichloro / BOC / ethyl, Ethyl 9-(2,3-Dichlorophenyl)-4-(t-butyloxycarbonyl) -1,1-dioxo-2,3,4,5,6,9-hexahydro-7-methylpyrido[2,3-f][1,4]thiazepine-8-carboxylate], for which the inhibition at 1 µM in experiment [1] (@ 1.0 μM test compound) came to 32%; in the experiment with aorta tissue it was 18%. For the same compound, the inhibition at 2 µM in the experiment with trachealis muscle tissue turned out to be 0%. Also, in the experiment with aorta tissue (0.3 μM), the inhibition at 0.3 µM stood at 4%.
On to `CC1=C(C(=O)OCCN(C)Cc2ccccc2)C(c2cccc(Cl)c2Cl)C2=C(CNCCS2(=O)=O)N1` (stereo not shown) [2,3-dichloro / H / NBzNMe-ethyl, 2-(N-benzyl-N-methylamino)ethyl 9-(2,3-dichlorophenyl)-1,1-dioxo-2,3,4,5,6,9-hexahydro-7-methylpyrido[2,3-f][1,4]thiazepine-8-carboxylate], for which the pIC50 in experiment [1] was 6.42. In addition, in the experiment on trachealis muscle tissue, the inhibition at 0.1 µM was 23%, the inhibition at 0.3 µM was found to be 62% and the inhibition at 2 µM came out at 86%. The inhibition at 0.03 µM in the experiment on aorta tissue (0.03 μM) is 20%. Besides, in the experiment on aorta tissue, the inhibition at 0.1 µM came to 48% and the inhibition at 1 µM was 93%.
As for `CCOC(=O)C1=C(C)NC2=C(C1c1cccc(Cl)c1Cl)S(=O)(=O)CCN(Cc1ccccc1)C2` (stereo not shown) [2,3-dichloro / Bz / ethyl, Ethyl 4-N-Benzyl-9-(2,3-dichlorophenyl) -1,1-dioxo-2,3,4,5,6,9-hexahydro-7-methylpyrido [2,3-f][1,4]thiazepine-8-carboxylate], the negative-log IC50 (pIC50) in experiment [1] is 6.68. For the same compound, in the experiment on trachealis muscle tissue, the inhibition at 0.1 µM came out at 10% and the inhibition at 2 µM was determined as 32%. Further, the inhibition at 1 µM with aorta tissue is 79%.
Regarding `CCOC(=O)C1=C(C)NC2=C(C1c1ccccc1C(F)(F)F)S(=O)(=O)CCNC2` (stereo not shown) [2-CF3 / H / ethyl], in experiment [1], the pIC50 was 6.44. In addition, in the experiment on trachealis muscle tissue, the inhibition at 0.1 µM was 38%, the inhibition at 0.3 µM stood at 35% and the inhibition at 2 µM worked out at 73%. In the experiment on aorta tissue, the inhibition at 0.01 µM is 37%, the inhibition at 0.1 µM was found to be 68% and the inhibition at 1 µM worked out at 83%.
